Experimental data as given in PMC11201946 (Cancers, 2024).
Where “and” joins values, the source holds several entries; their conditions need not be identical. Equal values may be shown once. Read-outs that look alike come from different tables or passages of the source.

Assays:
[1] = test system: cytochrome P (CYP) enzymes; set-up: method as in earlier work; conditions: cited from earlier work
[2] = Population pharmacokinetic (popPK) model of plasma concentrations in adult patients (OpTAT study)
Description: Data were collected during the OpTAT study. […] Blood samples were collected from patients during their regular medical visits, with a maximum of eight samples taken per patient.
The digital monitor allowed us to provide accurate information on treatment implementation (i.e., the extent to which the patient’s dosing history is in line with the prescription—the correct dosing regimen, at the correct time and in the right condition) and temporary or long-term discontinuation of treatment (i.e., when the patient stops taking the treatment prematurely). For the remaining patients, dosing history was reconstructed based on information from the medical consultation notes, assuming steady-state condition if no information was available. Patient demographic and clinical data were extracted from medical records. For all clinical and laboratory data (e.g., body weight, hepatic or renal function), the closest measurement to the blood sample was used. If no measurement was taken within 10 days before or after the sample, then it was considered a missing value. Creatinine clearance (CrCL) was estimated using the Cockcroft–Gault formula [43]. Fat-free mass (FFM) was calculated using the following formula [44]:(1) FFMkg=BW×1−BFPbmi/100 with BW denoting bodyweight in kg and BFPbmi denoting body fat percentage, calculated using the following formula:(2) BFPbmi%=1.20×BMI+0.23×AGE−10.8×SEX−5.4 with BMI representing body mass index, in kg/m^2. SEX = 0 if women and 1 if men and AGE is provided in years.
The development of the population pharmacokinetic (popPK) model was performed using nonlinear mixed-effect modelling (Nonmem, ICON, Dublin, Ireland, version 7.4.3) and Pearl speaks Nonmem (PsN, version 4.8.0). Pirana (Certara, Radnor, PA, USA, version 2.9.6) was used for the management of runs, R (version 4.0.2), for graphical and statistical analyses.
A classical stepwise procedure was used to build the model. […] Inter-individual variability (IIV) was successively incorporated into each PK parameter. Different error models, including additive, proportional, and combined error models, were also assessed. Different values retrieved from the literature of absorption rate constants (ka), ranging from 0.4 to 2 h^−1, were evaluated due to insufficient data being collected during the absorption phase. For each patient, the time required to reach maximum concentration (Tmax) was estimated.
Biologically relevant covariates were introduced into the model through a forward/backward insertion/deletion method. Covariates tested were sex, body weight, body mass index (BMI), body surface area (BSA), age, FFM, CrCL, urea, total bilirubin, alkaline phosphatase (PAL), aspartate aminotransferase (ASAT), alanine aminotransferase (ALAT), concomitant administration of dabrafenib, and food intake. Initially, a univariate analysis was conducted, during which covariates were added one by one to the model. Continuous covariates were centred and normalized to the population median and were added to the model using either linear or allometric relationships, while categorical covariates followed a linear relationship. Missing values were assigned the population median. Subsequently, a multivariate analysis was performed of the identified significant covariates to develop the comprehensive model. Finally, a reductive analysis was performed to retain only the most significant covariates.
The assumption of steady state for patients without adherence information may have biased the analysis by interpreting low levels as high clearances resulting from missed doses rather than from a covariate effect. To verify this, a sensitivity analysis was conducted of the 11 patients with full adherence information. We assumed that if the significant covariate–parameter relationship persisted, its influence on the pharmacokinetic parameter would be confirmed, whereas, if not, this influence might have been confounded by other factors, including suboptimal adherence.

[3] = Figure 1; cited from earlier work
[4] = cited from earlier work
[5] = cited from earlier work; remark: listed apart in the source
[6] = cited from earlier work; remark: listed apart in the source
[7] = set-up: method as in PMID 32283865; conditions: fixed to a literature value; cited from earlier work
[8] = bootstrap performed on 2000 runs

CC(=O)Nc1cccc(-n2c(=O)n(C3CC3)c(=O)c3c(Nc4ccc(I)cc4F)n(C)c(=O)c(C)c32)c1 [trametinib]
substrate of cytochrome P (CYP) enzymes [1]: not a substrate | decrease in CL ([2]; 80-year-old versus 30-year-old patient): 40% | increase in CL ([2]; FFM of 68 kg compared with population median of 46.35 kg): 66% | IIV (CV%) on CL, base model ([2]; base two-compartment model): 45% | central volume (V2), base model ([2]; base two-compartment model): 102 L | intercompartmental clearance (Q), base model ([2]; base two-compartment model): 35.1 L/h | peripheral volume (V3), base model ([2]; base two-compartment model): 338 L | IIVCL, Bootstrap Median (95% PI) [2, 8]: 22 (13, 28) % | Q, Bootstrap Median (95% PI) [2, 8]: 28.83 (12.69, 60.68) L·h^−1 | V2, Bootstrap Median (95% PI) [2, 8]: 101.84 (65.42, 143.40) L | V3, Bootstrap Median (95% PI) [2, 8]: 286.48 (104.63, 385.40) L | θAGE, Bootstrap Median (95% PI) [2, 8]: −0.66 (−1.25 to −0.20) | θCL, Bootstrap Median (95% PI) [2, 8]: 3.98 (3.52, 4.45) L·h^−1 | θFFM, Bootstrap Median (95% PI) [2, 8]: 1.41 (0.92, 1.90) | σprop, Bootstrap Median (95% PI) [2, 8]: 20 (16, 24) % | Tmax, median (min, max) estimated per patient ([2]; both, human, in vivo): 1.7 h | Tmax ([2]; both, human, in vivo, Tmax, median (min, max) estimated per patient): 1.75 h | clearance ([2]; both, human, plasma, oral): 70 mL/min | CL variability explained by age ([2]; covariate age): 21% | increase in CL with coadministration of dabrafenib ([2]; covariate analysis, RSE = 46%, effect excluded after sensitivity analysis (adherence confounding)): 40% | CL variability explained by FFM ([2]; covariate fat-free mass): 66% | IIVCL (inter-individual variability of CL, CV), Final Model Estimation (RSE %) ([2]; final model): 23 (14) % | Q (typical intercompartmental clearance), Final Model Estimation (RSE %) ([2]; final model): 29.4 (30) L·h^−1 | V2 (typical volume of distribution, central), Final Model Estimation (RSE %) ([2]; final model): 108 L and 108 (16) L | V3 (peripheral volume of distribution), Final Model Estimation (RSE %) ([2]; final model): 286 L and 286 (25) L | θCL (typical clearance), Final Model Estimation (RSE %) ([2]; final model): 3.96 L·h^−1 and 3.96 (6) L·h^−1 | σprop (proportional residual error, CV), Final Model Estimation (RSE %) ([2]; final model): 20 (10) % | θAGE (effect of age on CL), Final Model Estimation (RSE %) ([2]; final model, AGEmedian = 63 years): −0.69 (32) | θFFM (effect of fat-free mass on CL), Final Model Estimation (RSE %) ([2]; final model, FFMmedian = 46.35 kg): 1.41 (17) | Most frequent adverse events: Abdominal pain [3]: 17% | Most frequent adverse events: Arthralgia [3]: 26% | Most frequent adverse events: Asthenia [3]: 15% | Most frequent adverse events: Chills [3]: 33% | Most frequent adverse events: Constipation [3]: 13% | Most frequent adverse events: Coughing [3]: 20% | Most frequent adverse events: Cutaneous dryness [3]: 13% | Most frequent adverse events: Diarrhea [3]: 32% | Most frequent adverse events: Erythema [3]: 10% | Most frequent adverse events: Fatigue [3]: 38% | Most frequent adverse events: Flu infection [3]: 11% | Most frequent adverse events: Haemorrhages [3]: 19% | Most frequent adverse events: Headache [3]: 33% | Most frequent adverse events: Hypertension [3]: 19% | Most frequent adverse events: Increase in ALAT [3]: 14% | Most frequent adverse events: Increase in ASAT [3]: 13% | Most frequent adverse events: Loss of appetite [3]: 14% | Most frequent adverse events: Muscle cramps [3]: 10% | Most frequent adverse events: Myalgia [3]: 15% | Most frequent adverse events: Nausea [3]: 38% | Most frequent adverse events: Pain in the extremities [3]: 12% | Most frequent adverse events: Peripheral oedema [3]: 16% | Most frequent adverse events: Pruritus [3]: 10% | Most frequent adverse events: Pyrexia [3]: 58% | Most frequent adverse events: Rash [3]: 24% | Most frequent adverse events: Rhinopharyngitis [3]: 11% | Most frequent adverse events: Vomiting [3]: 29% | Most frequent adverse events: dizziness [3]: 11% | CL in a previous popPK model (first value named) [4]: 5.83 L/h | CL in a previous popPK model (second value named) [4]: 4.91 L/h | peripheral volume of distribution ([4]; ref Balakirouchenane et al. [38]): 417 L | central volume of distribution ([4]; ref Ouellet et al. [37]): 214 L | peripheral volume of distribution ([4]; ref Ouellet et al. [37]): 568 L | lipophilicity (in words) [5]: lipophilic | Steady-state at day ([6]; Figure 1): 15 days | excreted in the urine [6]: 19% | terminal half-life [6]: around 127 h | time at which maximum concentration is reached after administration [6]: approximately 1.5 h | excreted in the urine ([6]; listed as Trametinib): ≤ 19% | bioavailability ([6]; oral): 72% | ka (absorption rate constant) [7]: 0.913 h^−1 and 0.913 fixed h^−1
